Experiments:
Assay type in all cases: binding
[1] = target: T1, GlHsp90 (trans-spliced full-length heat shock protein 90) (Giardia duodenalis, UniProt A0A644F9H9); test: intrinsic tryptophan fluorescence quenching (ex […] nm, em […] nm), single-site fit
T1 construct: gene GL50803_0098054; full length Hsp90, N terminus 6x His-tag (Methods text says purified HspN)

[2] = target: T1, GlHsp90 (trans-spliced full-length heat shock protein 90); test: intrinsic fluorescence quenching; also ATPase by TLC with radiolabelled ATP (Km […])
[3] = target: T1, GlHsp90 (trans-spliced full-length heat shock protein 90); test: intrinsic fluorescence quenching; also inhibits the purified ATPase (EC50 […])

T1 sequence (A0A644F9H9 entry or part of it): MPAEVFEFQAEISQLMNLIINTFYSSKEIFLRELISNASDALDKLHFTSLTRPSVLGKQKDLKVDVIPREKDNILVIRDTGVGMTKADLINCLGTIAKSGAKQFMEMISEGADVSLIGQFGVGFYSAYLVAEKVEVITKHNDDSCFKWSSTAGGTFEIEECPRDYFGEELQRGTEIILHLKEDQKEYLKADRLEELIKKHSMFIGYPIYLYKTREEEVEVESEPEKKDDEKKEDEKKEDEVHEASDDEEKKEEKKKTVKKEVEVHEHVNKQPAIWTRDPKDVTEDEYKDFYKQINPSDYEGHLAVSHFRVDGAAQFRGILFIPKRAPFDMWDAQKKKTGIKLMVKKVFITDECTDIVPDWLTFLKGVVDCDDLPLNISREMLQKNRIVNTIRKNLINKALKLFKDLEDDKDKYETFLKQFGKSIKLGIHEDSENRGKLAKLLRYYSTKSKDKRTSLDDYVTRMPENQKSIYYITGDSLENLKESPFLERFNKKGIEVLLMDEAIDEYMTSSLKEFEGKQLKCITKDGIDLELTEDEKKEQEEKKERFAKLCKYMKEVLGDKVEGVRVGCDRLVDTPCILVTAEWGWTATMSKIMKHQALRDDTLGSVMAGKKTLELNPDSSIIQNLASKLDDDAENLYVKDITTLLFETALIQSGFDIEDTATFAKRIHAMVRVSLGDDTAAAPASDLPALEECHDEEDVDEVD

For `COC1=C2C[C@@H](C)C[C@H](OC)[C@H](O)[C@@H](C)/C=C(\C)[C@H](OC(N)=O)[C@@H](OC)/C=C\C=C(/C)C(=O)NC(=CC1=O)C2=O` [GA, Geldanamycin], the Kd [1] was 1.5 µM.
`Nc1ncnc2c1ncn2[C@@H]1O[C@H](COP(=O)(O)OP(=O)(O)OP(=O)(O)O)[C@@H](O)[C@H]1O` [ATP] showed a Kd [2] of 630 µM.
For `C=CCNC1=C2C[C@@H](C)C[C@H](OC)[C@H](O)[C@@H](C)/C=C(\C)[C@H](OC(N)=O)[C@@H](OC)/C=C\C=C(/C)C(=O)NC(=CC1=O)C2=O` [17AAG], the Kd [3] was 17.1 µM.
